The text below walks through data of patent US12667559B2, “Dihydronaphthyridinone compound, and preparation method therefor and medical use thereof” (GENFLEET THERAPEUTICS (SHANGHAI) INC., priority 2020, dated 2026).

pIC50: −log10 of the molar value.

In general, pIC50 refers to the negative decadic logarithm of the IC50, by convention in mol/L.

The first test relates to U937 cells. Nature of the test: Inhibitory activity against TNF-α induced programmed cell necrosis (U937 cells, CellTiter-Glo). The format is cell-based, human. As to conditions: Homo sapiens, U-937, 48 h, U937 cells, human TNF-α and Q-VD-Oph induced necrosis, 48 hours, survival rate; read-out: U937 IC50.
Regarding `Nc1nc2cc(-c3cnc4c(c3)C(=O)N(Cc3cc(F)cc(F)c3OC3CCOCC3)CC4)ccn2n1` [Z70], the pIC50 was 9.40.
The same measure, in the same setting: in the case of `Nc1nc2cc(-c3cnc4c(c3)C(=O)N(Cc3ncccc3OC3CC3)CC4)ccn2n1` [Z78] it was 7.23; in that of `Nc1nc2cc(-c3cnc4c(c3)C(=O)N(Cc3ccccc3OC3CC3)CC4)ccn2n1` [Z68], 8.37.
Still for that read-out and setting: the result for `C[C@@H](c1ccccc1OC(F)(F)F)N1CCc2ncc(-c3ccn4nc(N)nc4c3)cc2C1=O` [Z46-1, (S)-3-(2-amino-[1,2,4]triazolo[1,5-a]pyridyl-7-yl)-6-(1-(2-(trifluoromethoxy)phenyl)ethyl)-7,8-dihydro-1,6-naphthyridin-5(6H)-one] reads 8.13; that for `C[C@H](c1ccccc1OC(F)(F)F)N1CCc2ncc(-c3ccn4nc(N)nc4c3)cc2C1=O` [Z46-2, (R)-3-(2-amino-[1,2,4]triazolo[1,5-a]pyridyl-7-yl)-6-(1-(2-(trifluoromethoxy)phenyl)ethyl)-7,8-dihydro-1,6-naphthyridin-5(6H)-one], 6.01; that for `O=C(Nc1cn2nc(-c3cnc4c(c3)C(=O)N(Cc3cc(F)cc(F)c3OC3CCOCC3)CC4)ccc2n1)C1CC1` [Z37, N-(6-(6-(3,5-difluoro-2-((tetrahydro-2H-pyran-4-yl)oxy)benzyl)-5-oxo-5,6,7,8-tetrahydro-1,6-naphthyridin-3-yl)imidazo[1,2-b]pyridazin-2-yl)cyclopropanecarboxamide], 9.30.
In the case of `Cc1nc2c(cc1-c1ccn3nc(N)nc3c1)C(=O)N(Cc1ncccc1OC1CC1)CC2` [Z93], the negative-log IC50 (pIC50) was 7.89.
On the same count and under the same terms, in the case of `CC(C)(O)C(=O)N1CC(F)C(N2CCc3ncc(-c4cc(C(F)(F)F)c5c(N)ncnn45)cc3C2=O)C1` (stereo not drawn) [Z33, cis-3-(4-amino-5-(trifluoromethyl)pyrrolo[2,1-f][1,2,4]triazin-7-yl)-6-(4-fluoro-1-(2-hydroxy-2-methylpropionyl)pyrrolidin-3-yl)-7,8-dihydro-1,6-naphthyridin-5(6H)-one] it was 6.47; in that of `Nc1nc2cc(-c3cnc4c(c3)C(=O)N(Cc3cc(F)cc(F)c3OC3CCOC3)CC4)ccn2n1` (stereo not shown) [Z71], 8.96; in that of `Nc1nc2cc(-c3cnc4c(c3)C(=O)N(Cc3cc(F)ccc3CN3CCOCC3)CC4)ccn2n1` [Z54, 3-(2-amino-[1,2,4]triazolo[1,5-a]pyridyl-7-yl)-6-(5-fluoro-2-(morpholinomethyl)benzyl)-7,8-dihydro-1,6-naphthyridin-5(6H)-one], 7.92.
Still for that read-out and setting: in the case of `CC(=O)Nc1cn2nc(-c3cnc4c(c3)C(=O)N(C(C)c3ccccc3OC(F)(F)F)CC4)ccc2n1` (stereo not shown) [Z7, N-(6-(5-oxo-6-(1-(2-(trifluoromethoxy)phenyl)ethyl)-5,6,7,8-tetrahydro-1,6-naphthyridin-3-yl)imidazo[1,2-b]pyridazin-2-yl)acetamide] it was 8.41; in that of `CCOC(=O)C(=O)Nc1cn2nc(-c3cnc4c(c3)C(=O)N(Cc3cc(F)cc(F)c3OC3CCOCC3)CC4)ccc2n1` [Z96, ethyl 2-((6-(6-(3,5-difluoro-2-((tetrahydro-2H-pyran-4-yl)oxy)benzyl)-5-oxo-5,6,7,8-tetrahydro-1,6-naphthyridin-3-yl)imidazo[1,2-b]pyridazin-2-yl)amino)-2-oxoacetate], 8.77.
On the same count and under the same terms, in the case of `Cc1c(-c2cnc3c(c2)C(=O)N(Cc2ncccc2OC2CC2)CC3)ccn2nc(N)nc12` [Z98, 3-(2-amino-8-methyl-[1,2,4]triazolo[1,5-a]pyridyl-7-yl)-6-((3-cyclopropoxypyridyl-2-yl)methyl)-7,8-dihydro-1,6-naphthyridin-5(6H)-one] it was 6.38; in that of `Nc1nc2cc(-c3cnc4c(c3)C(=O)N(Cc3cc(F)ccc3OC3COC3)CC4)ccn2n1` [Z79], 7.32.

The test is the same for the next values; noted with them: Homo sapiens, U-937, 48 h, read-out: U937 IC50.
For `Cn1c(N)nc2ccc(-c3cnc4c(c3)C(=O)N(Cc3cc(OC(F)(F)F)ccc3F)CC4)cc21` [Z14, 3-(2-amino-1-methyl-1H-benzo[d]imidazol-6-yl)-6-(2-fluoro-5-(trifluoromethoxy)benzyl)-7,8-dihydro-1,6-naphthyridin-5(6H)-one], the pIC50 was 7.99.

Still in this test, the particulars now being: U937 cells, human TNF-α and Q-VD-Oph induced necrosis, 48 hours, survival rate; read-out: U937 IC50.
`CC(=O)Nc1nc2cc(-c3cnc4c(c3)C(=O)N(C(C)c3ccccc3OC(F)(F)F)CC4)ccn2n1` (stereo not shown) [Z49, N-(7-(5-oxo-6-(1-(2-(trifluoromethoxy)phenyl)ethyl)-5,6,7,8-tetrahydro-1,6-naphthyridin-3-yl)-[1,2,4]triazolo[1,5-a]pyridyl-2-yl)acetamide]: the pIC50 is 7.59.
The same measure, in the same setting: in the case of `CC(=O)Nc1cn2nc(-c3cnc4c(c3)C(=O)N(Cc3cc(F)ccc3CN3CCOCC3)CC4)ccc2n1` [Z19] it was 7.46; in that of `C[C@@](O)(C(=O)N1C[C@@H](N2CCc3ncc(-c4cc(C(F)(F)F)c5c(N)ncnn45)cc3C2=O)[C@@H](F)C1)C(F)(F)F` (single isomer, unassigned) [Z27-2], 8.72.
The same measure, in the same setting: the result for `CC(=O)Nc1cn2nc(-c3cnc4c(c3)C(=O)N(Cc3ncccc3OC3CCOCC3)CC4)ccc2n1` [Z28, N-(6-(5-oxo-6-((3-((tetrahydro-2H-pyran-4-yl)oxy)pyridyl-2-yl)methyl)-5,6,7,8-tetrahydro-1,6-naphthyridin-3-yl)imidazo[1,2-b]pyridazin-2-yl)acetamide] reads 7.90.

The same test, now with this note: U-937; U937 cells, human TNF-α and Q-VD-Oph induced necrosis, 48 hours, survival rate; read-out: U937 IC50.
Regarding `CC(c1cc(OC(F)(F)F)ccc1F)N1CCc2ncc(-c3ccn4nc(N)nc4c3)cc2C1=O` (stereo not shown) [Z60, 3-(2-amino-[1,2,4]triazolo[1,5-a]pyridyl-7-yl)-6-(1-(2-fluoro-5-(trifluoromethoxy)phenyl)ethyl)-7,8-dihydro-1,6-naphthyridin-5(6H)-one], the pIC50 was 6.79.
In the case of `[2H]C([2H])([2H])C(=O)Nc1cn2nc(-c3cnc4c(c3)C(=O)N(Cc3cc(F)cc(F)c3OC3CCOCC3)CC4)ccc2n1` [Z38, N-(6-(6-(3,5-difluoro-2-((tetrahydro-2H-pyran-4-yl)oxy)benzyl)-5-oxo-5,6,7,8-tetrahydro-1,6-naphthyridin-3-yl)imidazo[1,2-b]pyridazin-2-yl)acetamide-2,2,2-d3], the pIC50 is 8.89.
Same read-out and setting: in the case of `CC(=O)Nc1cn2nc(-c3cnc4c(c3)C(=O)N(Cc3cc(F)cc(F)c3OC3CC3)CC4)ccc2n1` [Z20, N-(6-(6-(2-cyclopropoxy-3,5-difluorobenzyl)-5-oxo-5,6,7,8-tetrahydro-1,6-naphthyridin-3-yl)imidazo[1,2-b]pyridazin-2-yl)acetamide] it was 8.36.
Same read-out and setting: the result for `Nc1nc2cc(-c3cnc4c(c3)C(=O)N(Cc3cccc(OC(F)(F)F)c3)CC4)ccn2n1` [Z50, 3-(2-amino-[1,2,4]triazolo[1,5-a]pyridyl-7-yl)-6-(3-(trifluoromethoxy)benzyl)-7,8-dihydro-1,6-naphthyridin-5(6H)-one] reads 7.40; that for `Nc1nc2cc(-c3cnc4c(c3)C(=O)N(Cc3cc(OC(F)(F)F)ccc3F)CC4)ccn2n1` [Z48, 3-(2-amino-[1,2,4]triazolo[1,5-a]pyridyl-7-yl)-6-(2-fluoro-5-(trifluoromethoxy)benzyl)-7,8-dihydro-1,6-naphthyridin-5(6H)-one], 8.22; that for `CC(c1ccccc1OC(F)(F)F)N1CCc2ncc(-c3ccn4nc(N)nc4c3)cc2C1=O` (stereo not shown) [Z46, 3-(2-amino-[1,2,4]triazolo[1,5-a]pyridyl-7-yl)-6-(1-(2-(trifluoromethoxy)phenyl)ethyl)-7,8-dihydro-1,6-naphthyridin-5(6H)-one], 8.15.
